Reference: PubChem BioAssay (NCI)
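1) Cells in 96-well plates. 2) Compound, 48 h, 5 concentrations. 3) Linear interpolation between surrounding doses. 4) Unreached endpoint = highest concentration. GI50 marks 50% less growth. TGI: total growth inhibition.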

Tests used:
Experiment in all cases: growth of human tumour cells (NCI), 48 h
MOLT-4 leukemia = system: MOLT-4 leukemia
SF-539 CNS = system: SF-539 CNS
SW-620 colon = system: SW-620 colon
NCI-H522 lung = system: NCI-H522 lung
HOP-92 NSCLC = system: HOP-92 NSCLC
SF-268 CNS = system: SF-268 CNS
KM12 colon = system: KM12 colon
786-0 renal = system: 786-0 renal
MDA-MB-435 = system: MDA-MB-435
PC-3 prostate = system: PC-3 prostate

| Compound | TGI (MOLT-4 leukemia) [µM] | TGI (SF-539 CNS) [µM] | TGI (SW-620 colon) [µM] | TGI (NCI-H522 lung) [µM] | TGI (HOP-92 NSCLC) [µM] | TGI (SF-268 CNS) [µM] | TGI (KM12 colon) [µM] | TGI (786-0 renal) [µM] | TGI (MDA-MB-435) [µM] | GI50 (PC-3 prostate) [µM] | TGI (PC-3 prostate) [µM] | GI50 (MOLT-4 leukemia) [µM] | GI50 (SF-539 CNS) [µM] | GI50 (SW-620 colon) [µM] | GI50 (NCI-H522 lung) [µM] | GI50 (MDA-MB-435) [µM] | GI50 (SF-268 CNS) [µM] | GI50 (KM12 colon) [µM] | GI50 (786-0 renal) [µM] | GI50 (HOP-92 NSCLC) [µM] |
| --- | --- | --- | --- | --- | --- | --- | --- | --- | --- | --- | --- | --- | --- | --- | --- | --- | --- | --- | --- | --- |
| CCCC/C=C/C1Cc2ccccc2CN1S(=O)(=O)c1ccc(C)cc1 (centres undefined) | 53.3 | 33 | 24.1 | 20.2 | 8.82 | 30 | 22.1 | 25.1 | – | – | – | – | – | – | – | – | – | – | – | – |
| O=S(O)CCCCCSSCCCCSSCCCCCS(=O)O | > 100 | > 100 | > 100 | > 100 | > 100 | > 100 | > 100 | > 100 | – | – | – | – | – | – | – | – | – | – | – | – |
| CCn1c2c(n(CC)c1=S)-c1c(n(CC)c(=S)n1CC)SSSS2 | 11.1 | 28.2 | 3.29 | 3.76 | 9.71 | 44.4 | 35.9 | 28.6 | 27.5 | – | – | – | – | – | – | – | – | – | – | – |
| Cn1c2c(c3ccccc31)C1CCCCC1C1C(=O)NC(=O)C21 (centres undefined) | 67.5 | > 100 | > 100 | – | – | > 100 | > 100 | > 100 | – | – | – | – | – | – | – | – | – | – | – | – |
| CN1CCCNc2c(c(=O)c2=O)NCCCN(C)CCCNc2c(c(=O)c2=O)NCCCN(C)CCCNc2c(c(=O)c2=O)NCCCN(C)CCCNc2c(c(=O)c2=O)NCCCN(C)CCCNc2c(c(=O)c2=O)NCCCN(C)CCCNc2c(c(=O)c2=O)NCCCN(C)CCCNc2c(c(=O)c2=O)NCCC1 | 45.2 | 7.69 | 25.3 | > 50 | – | 18.3 | 18 | 15.1 | 11.5 | 7.02 | 22.2 | 9.7 | 1.89 | 4.63 | 6.91 | 2.68 | 1.82 | 3.63 | 4.29 | – |
| CC1C[C@H](OC(N)=O)C(C)CC1=O (some centres undefined) | > 100 | > 100 | > 100 | – | > 100 | > 100 | > 100 | > 100 | – | – | – | – | – | – | – | – | – | – | – | – |
| C[C@]12CCC[C@H](Cl)C1(O)C[C@H](C(=O)O)CC2 (some centres undefined) | > 100 | > 100 | > 100 | > 100 | > 100 | > 100 | > 100 | > 100 | – | – | – | – | – | – | – | – | – | – | – | – |
| CC1=CC(=O)CCC2(C)C1CC[C@@H]2OC=O (some centres undefined) | > 100 | > 100 | > 100 | > 100 | > 100 | > 100 | > 100 | > 100 | – | – | – | – | – | – | – | – | – | – | – | – |
| COc1ccc2oc3c4c2c1CCC4CCC3=O (centres undefined) | > 100 | > 100 | > 100 | > 100 | > 100 | > 100 | > 100 | > 100 | – | – | – | – | – | – | – | – | – | – | – | – |
| C=C1C[C@](OC)([C@H](O)C(=O)N[C@@H](OC)[C@@H]2C[C@@H](O)C(C)(C)[C@@H](C[C@@H](COC)OC)O2)O[C@H](C)[C@@H]1C | > 1 | 0.00213 | 0.00508 | 0.00725 | 0.00889 | 0.00538 | 0.00339 | 0.0119 | 0.00507 | – | – | 0.00437 | 0.000166 | 0.00157 | 0.00194 | 0.00162 | 0.00195 | 0.000861 | 0.0022 | 0.00286 |
| CSC(C1c2ccccc2N(C)C2=NC(=O)N(C)C(=O)C21Cl)S(=O)(=O)c1ccc(C)cc1 (centres undefined) | 40.8 | > 100 | 71.1 | 30.8 | 59.9 | > 100 | > 100 | 33.2 | – | – | – | – | – | – | – | – | – | – | – | – |
| CN1C2(c3ccccc3)c3c(-c4ccccc4)sc(-c4ccccc4)c3C1(c1ccccc1)C1C(=O)N(c3ccccc3)C(=O)C12 (centres undefined) | – | > 100 | > 100 | > 100 | > 100 | > 100 | > 100 | > 100 | – | – | – | – | – | – | – | – | – | – | – | – |
| CSc1cnn(CCC#N)c(=O)n1 | > 100 | > 100 | > 100 | > 100 | – | > 100 | > 100 | > 100 | > 100 | – | > 100 | – | – | – | – | – | – | – | – | – |
| CC(C)c1ccccc1NC(=O)C(=O)Cc1nc2ccccc2s1 | > 100 | > 100 | > 100 | > 100 | > 100 | > 100 | > 100 | > 100 | – | – | – | – | – | – | – | – | – | – | – | – |
| O=P(O)(O)c1ccccc1 (tested in a mixture with another compound) | – | – | > 100 | > 100 | > 100 | > 100 | > 100 | > 100 | > 100 | – | > 100 | – | – | – | – | – | – | – | – | – |
| CCOc1ccc([C@@H]2[C@@H](Oc3ccccc3)C(=O)N2c2cc(OC)c(OC)c(OC)c2)cc1 | > 100 | – | > 100 | 0.371 | > 100 | > 100 | > 100 | > 100 | – | 0.0706 | > 100 | 0.17 | – | 0.0536 | 0.0323 | – | 0.0975 | 0.0525 | 0.0896 | 0.642 |
| CC(=O)N1CC(Nc2ccc(OC(F)(F)F)cc2)=CC1=O | > 100 | 9.01 | > 100 | 5.75 | – | > 100 | 25.1 | > 100 | 0.439 | 2.99 | > 100 | 4.21 | 1.31 | 0.476 | 1.8 | 0.195 | 14.4 | 0.562 | 3.27 | – |
| COc1ccc(-c2ccc(/C=N/n3c(COc4ccccc4Cl)nn(CN4CCN(C)CC4)c3=S)o2)c([N+](=O)[O-])c1 | – | 39.2 | – | > 100 | 70.7 | 45.1 | 31.7 | 39.3 | 40.9 | 15.3 | 58.2 | – | 19.7 | – | 29.5 | 18.3 | 17.5 | 11.9 | 17.4 | 21 |
| CCOC(=O)C(=O)Nc1ccc(C)cc1C | > 100 | > 100 | > 100 | > 100 | > 100 | > 100 | > 100 | > 100 | – | – | – | – | – | – | – | – | – | – | – | – |
| CC(=O)C1CC=C(C)CC1 (centres undefined) | > 100 | > 100 | > 100 | > 100 | > 100 | > 100 | > 100 | > 100 | – | – | – | – | – | – | – | – | – | – | – | – |
